Measured values as given in ChEMBL document CHEMBL1129090, “Potent fluoromethyl ketone inhibitors of recombinant human calpain I” (Bioorg Med Chem Lett, 1996).
*1 amine or outer side, *2 acyl side, *3 side chain or, on linkers, in order; H or OH if unused. Where a SMILES comes first, the peptide text is derived from it. [ ]: non-standard residue; d: D form. The star is where a group is joined. ξ: configuration not given here. ξF = NC(Cc1ccccc1)C(=O)O; Cbz = O=C(OCc1ccccc1)*; Boc = CC(C)(C)OC(=O)*; CO = O=C([*:1])[*:2]; NHBn = c1ccc(CN*)cc1; ξAbu = CCC(N)C(=O)O; CH2F = FC*

Biological target: T1, Calpain-1 catalytic subunit (Homo sapiens) (UniProt P07384)
T1 sequence (whole entry): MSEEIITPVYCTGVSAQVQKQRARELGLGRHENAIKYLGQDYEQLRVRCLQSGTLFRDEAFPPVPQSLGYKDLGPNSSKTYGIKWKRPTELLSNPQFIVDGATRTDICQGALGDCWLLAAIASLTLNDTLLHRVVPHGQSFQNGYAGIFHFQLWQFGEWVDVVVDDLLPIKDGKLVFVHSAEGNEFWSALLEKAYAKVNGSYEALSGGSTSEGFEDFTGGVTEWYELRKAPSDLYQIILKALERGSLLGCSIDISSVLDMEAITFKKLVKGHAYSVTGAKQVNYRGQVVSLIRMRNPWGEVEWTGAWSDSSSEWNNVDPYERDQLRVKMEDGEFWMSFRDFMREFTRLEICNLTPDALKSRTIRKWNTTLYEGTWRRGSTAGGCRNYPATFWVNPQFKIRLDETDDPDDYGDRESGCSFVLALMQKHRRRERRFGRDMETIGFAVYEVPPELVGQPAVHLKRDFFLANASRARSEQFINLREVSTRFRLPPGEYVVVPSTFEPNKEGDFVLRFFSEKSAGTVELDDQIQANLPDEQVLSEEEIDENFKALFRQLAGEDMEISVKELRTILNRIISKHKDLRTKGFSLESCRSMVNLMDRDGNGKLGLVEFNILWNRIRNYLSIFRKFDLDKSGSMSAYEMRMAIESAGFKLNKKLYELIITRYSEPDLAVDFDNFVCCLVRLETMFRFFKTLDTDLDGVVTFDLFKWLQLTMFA
Assay: Compound was tested for inhibitory activity against recombinant human Calpain 1

Structure (SMILES): CC(C)C[C@H](NC(=O)[C@H]1O[C@@H]1C(=O)O)C(=O)NCCCCN=C(N)N
- K obs / 1: 4700 M⁻¹ s⁻¹

Structure (SMILES): CC(C)C[C@H](NS(=O)(=O)N1CCOCC1)C(=O)NC(Cc1ccccc1)C(=O)CF (stereo partly specified)
- K obs / 1: 67200 M⁻¹ s⁻¹

Structure (SMILES): CC(C)C[C@H](NC(=O)OC(C)(C)C)C(=O)NC(Cc1ccccc1)C(=O)CF (stereo partly drawn) (Boc-Leu-[ξF]-CH2F)
- K obs / 1: 68600 M⁻¹ s⁻¹

Structure (SMILES): CCC(NC(=O)[C@H](CC(C)C)NC(=O)OCc1ccccc1)C(=O)CF (stereo partly drawn) (Cbz-Leu-[ξAbu]-CH2F)
- K obs / 1: 24200 M⁻¹ s⁻¹

Structure (SMILES): CC(C)C[C@H](NC(=O)OCc1ccccc1)C(=O)NC(Cc1ccccc1)C(=O)CF (stereo partly drawn) (Cbz-Leu-[ξF]-CH2F)
- K obs / 1: 136000 M⁻¹ s⁻¹

Structure (SMILES): CC(C)C[C@H](NC(=O)NCc1ccccc1)C(=O)NC(Cc1ccccc1)C(=O)CF (stereo partly specified) ({NHBn-CO}-Leu-[ξF]-CH2F)
- K obs / 1: 67200 M⁻¹ s⁻¹
